“And” between values parts separate entries of the source, which are not always exact repeats. Equal values may be shown once.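 Assay format: 96-well plates, 48-hour exposure. GI50 = concentration required for 50% inhibition of growth. TGI: total growth inhibition.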 Where a SMILES comes first, the peptide text is derived from it. [ ]: non-standard residue; d: D form. The star is where a group is joined. ξ: configuration not given here. X3 = COc1ccc(C(N*)c2ccc(OC)cc2)cc1; NMeF = CN[C@@H](Cc1ccccc1)C(=O)O; NMeD = CN[C@@H](CC(=O)O)C(=O)O; NMeV = CN[C@H](C(=O)O)C(C)C; ξNMeV = CNC(C(=O)O)C(C)C; Boc = CC(C)(C)OC(=O)*; ξNMeA = CNC(C)C(=O)O; ξV = CC(C)C(N)C(=O)O
Experiments:
Test in all cases: DTP human tumour cell line panel, 48 h
KM12 colon = system: KM12 colon
HOP-18 NSCLC = system: HOP-18 NSCLC
DMS 273 small cell lung = system: DMS 273 small cell lung
MALME-3M melanoma = system: MALME-3M melanoma
SN12C renal = system: SN12C renal
RXF 393 renal = system: RXF 393 renal
SNB-78 CNS = system: SNB-78 CNS
HS 578T breast = system: HS 578T breast
PC-3 prostate = system: PC-3 prostate
SF-295 CNS = system: SF-295 CNS
TK-10 renal = system: TK-10 renal
M19-MEL melanoma = system: M19-MEL melanoma

Structure (SMILES)	TGI (KM12 colon)	TGI (HOP-18 NSCLC) [µM]	TGI (DMS 273 small cell lung) [µM]	TGI (MALME-3M melanoma)	TGI (SN12C renal)	TGI (RXF 393 renal)	TGI (SNB-78 CNS) [µM]	GI50 (HS 578T breast)	TGI (HS 578T breast)	GI50 (KM12 colon)	GI50 (PC-3 prostate)	TGI (PC-3 prostate)	GI50 (MALME-3M melanoma)	GI50 (SN12C renal)	GI50 (SF-295 CNS)	TGI (SF-295 CNS)	GI50 (TK-10 renal)	TGI (TK-10 renal)	GI50 (RXF 393 renal)	TGI (M19-MEL melanoma) [µM]
NC(=O)c1ccccc1NC(=O)C(=O)C(C(=O)c1ccc(Cl)c(Cl)c1)C1OC(=O)c2ccccc21 (stereo not given)	> 100 µM	> 100	> 100	80.4 µM	> 100 µM	45.7 µM	> 100													
Nc1c(C(=O)Nc2cccc(C(F)(F)F)c2)sc2nc3c(cc12)CCCCC3	> 100 µM			9.49 µM	19.3 µM	4.86 µM		3.8 µM	30.4 µM	5.33 µM	3.21 µM	34.2 µM	3 µM	3.41 µM	2.2 µM	12.2 µM	1.83 µM	4.47 µM	1.84 µM	
COc1ccc(C(NC(=O)C[C@@H](C(=O)N(C)C(C)C(=O)O)N(C)C(=O)[C@@H]2CCCN2C(=O)[C@H](C(C)C)N(C)C(=O)C(C(C)C)N(C)C(=O)[C@H](Cc2ccccc2)N(C)C(=O)C(NC(=O)OC(C)(C)C)C(C)C)c2ccc(OC)cc2)cc1 (stereo not given in full) (Boc-[ξV][NMeF][ξNMeV][NMeV]P[NMeD](X3)[ξNMeA]-OH)	15.2 µM and 34.1 µM		30.9	37.5 µM and 37.9 µM	37.5 µM and 38.9 µM	18.5 µM	36.5		7.32 µM	17.5 µM		37.5 µM	20.5 µM	19.1 µM		30.2 µM and 32.8 µM	20.6 µM	37.5 µM and 35.1 µM		34.4
CC1(COc2ccc3c(c2)ncn3-c2ccc3cccc(N4CCC(N)CC4)c3n2)COC1	5.74 µM and > 10 µM			6.46 µM and 3.74 µM	15.3 µM and > 10 µM	3.3 µM and 2.71 µM		2.08 µM and 0.385 µM	15.3 µM and 4.77 µM	0.0519 µM and 0.118 µM	5.38 µM and 3.54 µM	21.6 µM and > 10 µM	3.23 µM and 1.86 µM	0.945 µM and 1.12 µM	5.75 µM and 2.88 µM	19.4 µM and > 10 µM	1.97 µM and 2.56 µM	6.73 µM and > 10 µM	1.32 µM and 0.893 µM	
O=C1CN(c2cccc(Cl)c2)C(=O)CN1CCN1CC(=O)N(c2cccc(Cl)c2)CC1=O	> 100 µM			> 100 µM	> 100 µM	> 100 µM			> 100 µM			> 100 µM				> 100 µM		> 100 µM		
CCn1c(-c2nonc2N)nc2c(C#CC(C)(C)O)nc(OC[C@@H](N)c3ccccc3)cc21	6.75 µM			9.77 µM	7.66 µM	5.97 µM		4.56 µM	10.7 µM	3.05 µM	7.73 µM	25 µM	5.46 µM	3.96 µM	4.59 µM	9.63 µM	5.09 µM	11.3 µM	2.85 µM	
Cc1ccc(/C=C/C(=O)c2cccc3ccccc23)cc1	27.9 µM		47.2	28.6 µM	27.4 µM	26.2 µM	31.4									31.7 µM		28.5 µM		49.9
CC(=O)OCCOCNC(=S)N/N=C(\C)c1cnccn1	> 100 µM	97.5	67	> 100 µM	> 100 µM	> 100 µM	> 100									> 100 µM		> 100 µM		46.3
COCCOc1ccc(-c2nc3ccc(-c4nc5ccc(N6CCN(C)CC6)cc5[nH]4)cc3[nH]2)cc1	14.3 µM			1.55 µM	11.8 µM	3.63 µM		2.94 µM	15.9 µM	2.58 µM	2.19 µM	24.5 µM	0.165 µM	1.42 µM	1.38 µM	15.7 µM	4.74 µM	40.2 µM	1.8 µM	
C/C(CCn1[nH]c(=O)ccc1=O)=N\NC(=O)C(=O)NN	> 100 µM	> 100	> 100	> 100 µM	> 100 µM	> 100 µM										> 100 µM		> 100 µM		> 100
O=C(Nc1ccc(Oc2ccc(Nc3nc4ccccc4s3)cc2)cc1)Nc1ccc(Cl)c(C(F)(F)F)c1	3.34 µM			3.79 µM	3.03 µM	4 µM		2.07 µM	7.55 µM	1.51 µM	1.07 µM	2.79 µM	1.8 µM	1.42 µM	1.66 µM	3.41 µM	2.3 µM	5.35 µM	1.8 µM	
CCCCCCCCCCn1cc[n+](C)c1	5.75 µM			17.6 µM	9.71 µM	14.2 µM		2.36 µM	14 µM	1.57 µM	1.03 µM	6.73 µM	2.26 µM	2.54 µM	1.39 µM	8.43 µM	1.24 µM	9.58 µM	2.94 µM	
COc1ccc2nc3cc(Cl)ccc3c(NCCNCC(C)O)c2c1 (stereo not given)	8.74 µM			3.68 µM	7.4 µM	3.37 µM		4.47 µM	21.3 µM	2.02 µM	2.33 µM	5.86 µM	1.82 µM	1.85 µM	1.68 µM	6.71 µM	2.85 µM	8.28 µM	1.61 µM	
O=C1NC(=NC(CO)Cc2ccccc2)S/C1=C\c1ccc2ncccc2c1 (stereo not given)	> 25 µM			> 25 µM	> 25 µM	> 25 µM and 10.7 µM		11.3 µM and 7.01 µM	> 25 µM	12.4 µM and 2.25 µM	> 25 µM and 3.9 µM	> 25 µM	12 µM and 6.19 µM	14.9 µM and 3.46 µM	> 25 µM and 5.5 µM	> 25 µM	> 23.7 µM and 3.55 µM	> 25 µM	11.5 µM and 3.82 µM	
c1ccc(Sc2ncnc3ccccc23)cc1	28.2 µM			29.8 µM	27.4 µM	27.1 µM		29.5 µM	> 100 µM	13.2 µM	12.3 µM	60 µM	10.8 µM	10.8 µM	14.2 µM	45.6 µM	27.6 µM	> 100 µM	13.4 µM	
CC(=O)CC(OC(C)=O)C1=CCC2C(CC1C)OC(=O)C2C (stereo not given)	> 100 µM			> 100 µM	> 100 µM	> 100 µM			> 100 µM			> 100 µM				> 100 µM		> 100 µM		

From PubChem BioAssay (NCI)
